Measurements published in publication PMC6568410, “A scorpion venom peptide derivative BmKn‒22 with potent antibiofilm activity against Pseudomonas aeruginosa” (PLoS ONE, 2019).
Where no end group is shown, it is not given here.

Legend:
[1] = tested on: P. aeruginosa PAO1 biofilms; test: Antibiofilm activity of BmKn-22 and azithromycin alone or in combination, crystal violet; type: cell-based, Pseudomonas aeruginosa
Description: The effect of BmKn‒2 peptide and derivatives on biofilm formation of P. aeruginosa PAO1 was determined according to the method published previously with some modifications. Briefly, 100 μL of the test peptides was plated into the wells of flat-bottomed 96-well microtiter plates (Nunc™, Roskilde, Denmark) at the final concentrations of 200 ‒ 800 μM. Aliquots of the P. aeruginosa PAO1 suspension were then inoculated to the wells of 96-well microtiter plates to obtain a final concentration of 10^6 CFU/mL. Culture without the test peptides was used as the untreated control. After incubation at 37 ^OC for 24 h without agitation, planktonic cells were removed and the plates were gently rinsed twice with phosphate buffered saline (PBS) pH 7.4. Biofilms were then stained with 0.1% crystal violet solution (Merck, Darmstadt, Germany) for 10 minutes at room temperature. Excess stains were rinsed off with PBS pH 7.4 and the plates were left dry at 37 ^OC for 2 h. Subsequently, biofilm biomass was solubilized with 30% acetic acid and the optical density (OD) measured at 550 nm using a microplate reader (BioTek Synergy HT).
Briefly, P. aeruginosa PAO1 suspension (10^6 CFU/mL, final concentration) was added to the wells of flat-bottomed 96-well microtiter plates (Nunc) containing the test peptide, azithromycin (AZM; Sigma) alone or in combinations. […] Biofilm formation was employed by measuring biofilm biomass stained with crystal violet as a protocol described in previous section.

[2] = tested on: sheep red blood cells; test: Hemolytic assay; type: cell-based; conditions: 800 µM, 37 °C, 1 h
Description: Hemolytic activity of the test peptides was assayed according to a protocol described previously. Suspension of 2% sheep red blood cells (100 μL) prepared in PBS pH 7.4 was incubated with 100 μL of the test peptides (800 μM, final concentration). After incubation at 37 ^OC for 1 h, the suspension was centrifuged at 1,000 g for 5 min followed by transferring 100 μL of the supernatant to 96 well-microtiter plate (Nunc). Released hemoglobin was then determined by measuring an absorbance at 405 nm using a microplate reader (BioTek Synergy HT). Positive and negative controls in this assay were 1% Triton X-100 and PBS pH 7.4, respectively. Hemolysis (%) was calculated using an equation: (OD405 nm peptide ‒ OD405 nm PBS pH 7.4)/(OD405 nm 1% Triton X-100 ‒ OD405 nm PBS pH 7.4) × 100.

[3] = tested on: L929 mouse fibroblast cells; test: Cytotoxicity, MTT assay; type: cell-based; conditions: 800 µM, 24 h; for Cell viability (%): L929 cells
Description: The toxicity of the test peptides against L929 mouse fibroblast cells was assessed by 3-(4,5-dimethylthiazol-2-yl)-2,5-diphenyltetrazolium bromide (MTT) assay. L929 mouse fibroblast cells from American Type Culture Collection (ATCC, Manassas, VA, USA) were cultured in Dulbecco's Modified Eagle Medium (DMEM; HyClone, Utah, USA) supplemented with 10% fetal bovine serum (Gibco, South America), 10 mM 4-(2-hydroxyethyl)-1 piperazineethanesulfonic acid (HEPES; HyClone, Utah, USA), 2 mM L-glutamine (Gibco, Brazil) and 100 U/mL penicillin and 100 μg/ml streptomycin (Gibco, USA) in a 5% CO2 atmosphere at 37°C. L929 cells (2×10^4 cells/well) were seeded in 96-well plates (Nunc) and incubated overnight. The culture medium was discarded and replaced by 100 μL of fresh DMEM containing the test compounds (final concentration 800 μM). Cells without the test compounds served as untreated control. After 24 h incubation, 20 μL of MTT solution (5 mg/mL; Sigma, St. Louis, MO, USA) was added and incubated for 3 h. The culture supernatant was removed and 100 μL dimethyl sulfoxide was added to each well to dissolve the formazan crystals. The absorbance was measured at 540 nm on a microplate reader (BioTek Synergy HT). Percentage of cell viability was calculated according to the equation: (OD of treated cells/ OD of untreated cells) × 100.

[4] = tested on: P. aeruginosa PAO1 established biofilms; test: Established (24 h-preformed) biofilm assay, crystal violet staining; type: cell-based, Pseudomonas aeruginosa
Description: Antibiofilm activity of the test peptides was also examined against established biofilms as follows. Aliquots of the P. aeruginosa PAO1 suspension adjusted to a final concentration of 10^6 CFU/mL were seeded into the wells of flat-bottomed 96-well microtiter plates (Nunc). Biofilms were established at 37°C for 24 h. After incubation, nonadherent planktonic cells were removed by gently washing the wells with sterile PBS pH 7.4. Preformed biofilms were then treated with the test peptides at concentrations of 200 ‒ 800 μM and incubated at 37°C for 24 h. Culture without the test peptides served as the untreated control. After the incubation, the test peptides were aspirated gently and the plates were rinsed twice with PBS pH 7.4. Biofilm biomass was subsequently quantified by 0.1% crystal violet staining as previously described.

Sequence: FIGAIARLLSK [BmKn-22]
- biofilm reduction ([1]; BmKn-22 at 200 µM combined with 64 µg/mL azithromycin (1/2 MIC)): Up to 51.39%
- biofilm reduction ([1]; BmKn-22 at 400 µM combined with 64 µg/mL azithromycin (1/2 MIC)): ≤ 62.05%
- biofilm reduction ([1]; BmKn-22 at 800 µM combined with 64 µg/mL azithromycin (1/2 MIC)): 96.97%
- Biofilm biomass (% control) ([1]; peptide alone 200 µM, 24 h, 37 °C, crystal violet, mean of 3 independent experiments): 80.903 % control
- Biofilm biomass (% control) ([1]; peptide alone 200 µM, Exp. 1): 94.033 % control
- Biofilm biomass (% control) ([1]; peptide alone 200 µM, Exp. 2): 82.424 % control
- Biofilm biomass (% control) ([1]; peptide alone 200 µM, Exp. 3): 66.251 % control
- Biofilm biomass (% control) ([1]; peptide alone 400 µM, 24 h, 37 °C, crystal violet, mean of 3 independent experiments): 67.309 % control
- Biofilm biomass (% control) ([1]; peptide alone 400 µM, Exp. 1): 75.858 % control
- Biofilm biomass (% control) ([1]; peptide alone 400 µM, Exp. 2): 68.773 % control
- Biofilm biomass (% control) ([1]; peptide alone 400 µM, Exp. 3): 57.297 % control
- Biofilm biomass (% control) ([1]; peptide alone 800 µM, 24 h, 37 °C, crystal violet, mean of 3 independent experiments): 43.753 % control
- Biofilm biomass (% control) ([1]; peptide alone 800 µM, Exp. 1): 51.716 % control
- Biofilm biomass (% control) ([1]; peptide alone 800 µM, Exp. 2): 46.698 % control
- Biofilm biomass (% control) ([1]; peptide alone 800 µM, Exp. 3): 32.845 % control
- lysis of red blood cells [2]: less or no hemolysis
- effect on viability of L929 cells ([3]; compared with untreated control, result in words): low effects on cell viability
- Cell viability (%) ([3]; Exp. 1): 108.407%
- Cell viability (%) ([3]; Exp. 2): 75.218%
- Cell viability (%) ([3]; Exp. 3): 94.787%
- Biofilm inhibition (%), preformed biofilm ([4]; 200 µM, Exp. 1): 30.458%
- Biofilm inhibition (%), preformed biofilm ([4]; 200 µM, Exp. 2): 17.360%
- Biofilm inhibition (%), preformed biofilm ([4]; 200 µM, Exp. 3): 22.328%
- Biofilm inhibition (%), preformed biofilm ([4]; 400 µM, Exp. 1): 27.005%
- Biofilm inhibition (%), preformed biofilm ([4]; 400 µM, Exp. 2): 32.202%
- Biofilm inhibition (%), preformed biofilm ([4]; 400 µM, Exp. 3): 27.300%
- Biofilm inhibition (%), preformed biofilm ([4]; 800 µM, Exp. 1): 44.831%
- Biofilm inhibition (%), preformed biofilm ([4]; 800 µM, Exp. 2): 34.141%
- Biofilm inhibition (%), preformed biofilm ([4]; 800 µM, Exp. 3): 53.943%
